Results from patent US20260285880A1, “SUBSTITUTED DIHYDROTHIENOPYRIMIDINE COMPOUND, PREPARATION METHOD THEREFOR, AND USE THEREOF” (SHANGHAI YIDI BIOTECHNOLOGY CO., LTD., priority 2023, published 2026).
Like-named read-outs stand apart in the source and are kept apart here.

Molecular target: Flpin-293-PDE4B2 cells (Homo sapiens, UniProt Q07343)
Test: cell-based
[1] = read-out: Cell Inhibition % @1 nM, 1 nM, Flpin-293-PDE4B2 cells
[2] = read-out: Cell Inhibition % @10 nM, 10 nM, Flpin-293-PDE4B2 cells
[3] = read-out: Cell Inhibition % @100 nM, 100 nM, Flpin-293-PDE4B2 cells

Flpin-293-PDE4B2 cells, sequence (Q07343 1-564 isoform Q07343-2): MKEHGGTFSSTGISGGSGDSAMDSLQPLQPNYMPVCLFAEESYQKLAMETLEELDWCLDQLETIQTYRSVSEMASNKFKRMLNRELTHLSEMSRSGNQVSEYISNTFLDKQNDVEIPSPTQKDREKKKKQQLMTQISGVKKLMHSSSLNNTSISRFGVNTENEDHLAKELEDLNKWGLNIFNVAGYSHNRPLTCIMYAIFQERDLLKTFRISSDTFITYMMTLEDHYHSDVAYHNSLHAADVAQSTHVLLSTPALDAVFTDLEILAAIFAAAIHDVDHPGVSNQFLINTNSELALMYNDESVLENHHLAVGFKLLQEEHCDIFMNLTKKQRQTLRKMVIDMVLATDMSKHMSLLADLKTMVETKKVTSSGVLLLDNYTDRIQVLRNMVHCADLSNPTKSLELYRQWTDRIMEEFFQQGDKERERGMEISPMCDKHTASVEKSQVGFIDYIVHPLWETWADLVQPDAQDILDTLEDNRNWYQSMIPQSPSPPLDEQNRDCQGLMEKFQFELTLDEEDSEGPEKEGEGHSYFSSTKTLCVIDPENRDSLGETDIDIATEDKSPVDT

Compound	inhibition at 0.001 µM [1] [%]	inhibition at 0.01 µM [2] [%]	inhibition at 0.1 µM [3] [%]	inhibition at 0.001 µM (read-out: Cell Inhibition % @1 nM) [%]	inhibition at 0.01 µM (read-out: Cell Inhibition % @10 nM) [%]	inhibition at 0.1 µM (read-out: Cell Inhibition % @100 nM) [%]
[O-][S+]1CCc2nc(N3CCc4cccc(Cl)c4C3)nc(NC3(CO)CCC3)c21 (stereo not drawn) [Compound 21]	–	18.8	79.2	–	–	–
[O-][S+]1CCc2nc(N3CCc4cc(-c5ncco5)ccc4C3)nc(NC3(CO)CCC3)c21 (stereo not drawn) [Compound 84]	32.9	97	101	–	–	–
Cn1c2c(c3ccc(Cl)cc3c1=O)CCN(c1nc3c(c(NC4(CO)CCC4)n1)[S+]([O-])CC3)C2 (stereo not drawn) [Compound 98]	-1.71	46.7	95.8	–	–	–
Cn1nc(Cl)c2c3c(cnc21)CN(c1nc2c(c(NC4(CO)CCC4)n1)[S+]([O-])CC2)CC3 (stereo not drawn) [Compound 105]	7.53	42.5	93.5	–	–	–
[O-][S+]1CCc2nc(N3CC[C@@H]4c5ccc(F)cc5OC[C@H]4C3)nc(NC3(CO)CCC3)c21 (stereo partly drawn) [Compound 109]	17.7	65.4	97.8	–	–	–
[O-][S+]1CCc2nc(N3Cc4ccc(Br)cc4C3)nc(NC3(CO)CCC3)c21 (stereo not drawn) [Compound 59]	–	42.6	85.8	–	–	–
[O-][S+]1CCc2nc(N3CCc4cc(F)c(F)cc4C3)nc(NC3(CO)CCC3)c21 (stereo not drawn) [Compound 95]	-4.2	6.8	66.7	–	–	–
[O-][S+]1CCc2nc(N3CCc4cnc(Cl)cc4C3)nc(NC3(CO)CCC3)c21 (stereo not drawn) [Compound 79]	1.99	11.2	59.4	–	–	–
Cn1cc2c(n1)CN(c1nc3c(c(NC4(CO)CCC4)n1)[S+]([O-])CC3)CC2 (stereo not drawn) [Compound 30]	–	11.3	48	–	–	–
[O-][S+]1CCc2nc(N3CCc4ccc(Cl)cc4C3)nc(NC3(CO)CCC3)c21 (stereo not drawn) [Compound 20]	–	14.2	69.9	–	–	–
[O-][S+]1CCc2nc(N3CCc4cc(C(F)(F)F)ccc4C3)nc(NC3(CO)CCC3)c21 (stereo not drawn) [Compound 52]	–	81.8	99.5	–	–	–
[O-][S+]1CCc2nc(N3CCc4cc(Cl)ncc4C3)nc(NC3(CO)CCC3)c21 (stereo not drawn) [Compound 78]	–	–	–	2.2	32.1	86.3
Nc1nc2cc(Cl)ccc2c2c1CN(c1nc3c(c(NC4(CO)CCC4)n1)[S+]([O-])CC3)CC2 (stereo not drawn) [Compound 102]	-0.08	35.9	95.5	–	–	–
[O-][S+]1CCc2nc(N3CC[C@H]4c5ccc(Cl)cc5OC[C@H]4C3)nc(NC3(CO)CCC3)c21 (stereo partly drawn) [Compound 116]	2.17	16.9	73.4	–	–	–
Cn1cnc(-c2ccc3c(c2)CCN(c2nc4c(c(NC5(CO)CCC5)n2)[S+]([O-])CC4)C3)n1 (stereo not drawn) [Compound 94]	34.8	94.1	100	–	–	–
[O-][S+]1CCc2nc(N3CCc4nc(Br)sc4C3)nc(NC3(CO)CCC3)c21 (stereo not drawn) [Compound 63]	–	31.1	76.6	–	–	–
COc1ccc2sc3c(c2c1)CCN(c1nc2c(c(NC4(CO)CCC4)n1)[S+]([O-])CC2)C3 (stereo not drawn) [Compound 82]	19.1	77.5	99.9	–	–	–
[O-][S+]1CCc2nc(N3CC[C@@H]4c5cc(Cl)ccc5OC[C@H]4C3)nc(NC3(CO)CCC3)c21 (stereo partly drawn) [Compound 108]	-0.82	37.4	95.1	–	–	–
[O-][S+]1CCc2nc(N3CCc4cc(-n5ccnc5)ccc4C3)nc(NC3(CO)CCC3)c21 (stereo not drawn) [Compound 90]	15	65.8	97.2	–	–	–
[O-][S+]1CCc2nc(N3CCc4c(c(NCCO)nc5cc(Cl)ccc45)C3)nc(NC3(CO)CCC3)c21 (stereo not drawn) [Compound 103]	2.83	38.9	95.4	–	–	–
[O-][S+]1CCc2nc(N3CC[C@@H]4c5ccccc5OC[C@H]4C3)nc(NC3(CO)CCC3)c21 (stereo partly drawn) [Compound 83]	5.79	47.8	97.3	–	–	–
[O-][n+]1cc2c(c3ccc(Cl)cc31)CCN(c1nc3c(c(NC4(CO)CCC4)n1)[S+]([O-])CC3)C2 (stereo not drawn) [Compound 106]	0.41	21.2	67.5	–	–	–
[O-][S+]1CCc2nc(N3CC[C@@H]4c5ccc(Br)cc5OC[C@H]4C3)nc(NC3(CO)CCC3)c21 (stereo partly drawn) [Compound 115]	7.72	39.7	97.7	–	–	–
[O-][S+]1CCc2nc(N3CCc4cc(-n5cccn5)ccc4C3)nc(NC3(CO)CCC3)c21 (stereo not drawn) [Compound 91]	19.2	86	100	–	–	–
[O-][S+]1CCc2nc(N3CCc4cc(I)ccc4C3)nc(NC3(CO)CCC3)c21 (stereo not drawn) [Compound 67]	14.2	47.4	96.4	–	–	–
[O-][S+]1CCc2nc(N3CCc4cc(Cl)c(F)cc4C3)nc(NC3(CO)CCC3)c21 (stereo not drawn) [Compound 96]	-2.7	15.7	84.8	–	–	–
[O-][S+]1CCc2nc(N3CCc4cc(N5CC(F)C5)ccc4C3)nc(NC3(CO)CCC3)c21 (stereo not drawn) [Compound 89]	3.47	37.4	95.3	–	–	–
[O-][S+]1CCc2nc(N3CCc4cc(N5CC(F)(F)C5)ccc4C3)nc(NC3(CO)CCC3)c21 (stereo not drawn) [Compound 88]	3.67	28.8	93.5	–	–	–

Second part, led by results:

inhibition at 0.001 µM [1] [%]	inhibition at 0.01 µM [2] [%]	inhibition at 0.1 µM [3] [%]	Compound	inhibition at 0.001 µM (read-out: Cell Inhibition % @1 nM) [%]	inhibition at 0.01 µM (read-out: Cell Inhibition % @10 nM) [%]	inhibition at 0.1 µM (read-out: Cell Inhibition % @100 nM) [%]
26.9	89.7	100	C[C@H]1c2ccc(N3CCCC3)cc2CCN1c1nc2c(c(NCc3cnn(C)c3)n1)[S+]([O-])CC2 (stereo partly drawn) [Compound 206]	–	–	–
10.7	44.4	98.9	C[C@H]1c2ccc(N3CCC(F)(F)C3)cc2CCN1c1nc2c(c(NC3(CO)CCC3)n1)[S+]([O-])CC2 (stereo partly drawn) [Compound 224]	–	–	–
-0.51	8.04	61.6	COC[C@@H](CO)Nc1nc(N2CCc3cc(N4CCCC4)ccc3C2)nc2c1[S+]([O-])CC2 (stereo partly drawn) [Compound 199]	–	–	–
23.1	87.2	100	C[C@H]1c2ccc(N3CCCC3)cc2CCN1c1nc2c(c(NC3CS(=O)(=O)C3)n1)[S+]([O-])CC2 (stereo partly drawn) [Compound 204]	–	–	–
14.8	85.1	101	COC[C@H]1CCCN1c1ccc2c(c1)CCN(c1nc3c(c(NC4(CO)CCC4)n1)[S+]([O-])CC3)C2 (stereo partly drawn) [Compound 146]	–	–	–
6.93	39.6	72.2	O=C(O)Cc1ccc(Nc2nc(N3CCc4cc(Cl)ccc4C3)nc3c2[S@+]([O-])CC3)cc1 [Compound 129]	–	–	–
3.77	46	96.6	[O-][S+]1CCc2nc(N3CCc4cc(N5CC[C@H](O)C5)ccc4C3)nc(NC3(CO)CCC3)c21 (stereo partly drawn) [Compound 172]	–	–	–
12.5	50.1	98.4	C[C@H]1c2ccc(N3CCCC3)cc2CCN1c1nc2c(c(NC3(CO)CCOC3)n1)[S+]([O-])CC2 (stereo partly drawn) [Compound 211]	–	–	–
41.5	96.2	101	CC(=O)N1CC[C@H](Nc2nc(N3CCc4cc(N5CCCC5)ccc4[C@@H]3C)nc3c2[S+]([O-])CC3)C1 (stereo partly drawn) [Compound 222]	–	–	–
4.95	27.9	89.6	N#CCc1ccc(Nc2nc(N3CCc4cc(Cl)ccc4C3)nc3c2[S+]([O-])CC3)cc1 (stereo not drawn) [Compound 138]	–	–	–
8.67	32.2	94.4	COC[C@@H]1CCCN1c1ccc2c(c1)CCN(c1nc3c(c(NC4(CO)CCC4)n1)[S+]([O-])CC3)C2 (stereo partly drawn) [Compound 147]	–	–	–
14.8	84.1	99.9	C[C@H]1c2ccc(N3CCCC3)cc2CCN1c1nc2c(c(NC3(CO)CC3)n1)[S+]([O-])CC2 (stereo partly drawn) [Compound 203]	–	–	–
4.06	36.5	94.3	[O-][S+]1CCc2nc(N3CCc4cc(N5CCC(CO)C5)ccc4C3)nc(NC3(CO)CCC3)c21 (stereo not drawn) [Compound 171]	–	–	–
3.3	29.6	86.8	C[C@H]1c2ccc(Br)cc2CCN1c1nc2c(c(NC3(CO)CCC3)n1)[S+]([O-])CC2 (stereo partly drawn) [Compound 123]	–	–	–
4.48	9.75	61.7	C[C@H]1c2ccc(N3CCCC3)cc2CCN1c1nc2c(c(Nc3cnn(C4CN(C)C4)c3)n1)[S+]([O-])CC2 (stereo partly drawn) [Compound 209]	–	–	–
6.23	20	61.1	[O-][S+]1CCc2nc(N3CCc4cc(N5CC6(COC6)C5)ccc4C3)nc(NC3(CO)CCC3)c21 (stereo not drawn) [Compound 164]	–	–	–
3.68	40.6	98	[O-][S+]1CCc2nc(N3CCc4cc(N5CCCC5)cc(F)c4C3)nc(NC3(CO)CCC3)c21 (stereo not drawn) [Compound 182]	–	–	–
4.94	21.8	83.8	NC(=O)Nc1ccc(Nc2nc(N3CCc4cc(Cl)ccc4C3)nc3c2[S+]([O-])CC3)cc1 (stereo not drawn) [Compound 137]	–	–	–
30.8	94.4	100	C[C@H]1c2ccc(N3CCCC3)cc2CCN1c1nc2c(c(Nc3cnn(C)c3)n1)[S+]([O-])CC2 (stereo partly drawn) [Compound 207]	–	–	–
8.53	68	98.9	[O-][S+]1CCc2nc(N3CCc4cc(N5C[C@H]6COC[C@H]6C5)ccc4C3)nc(NC3(CO)CCC3)c21 (stereo partly drawn) [Compound 178]	–	–	–
